± gives the expanded uncertainty stated by the source.

The conditions of the series: 298.15 K; 101.33 kPa; Liquid; Vibrating tube method.

In general, mass density refers to the mass of a sample divided by its volume. In the case of `FC(F)(F)C(F)(F)C(F)(F)C(F)(F)C(F)(F)C(F)(F)C(F)(F)C(F)(F)F` [octadecafluorooctane], the mass density turned out to be 1754.28 ± 0.44 kg/m3.
For `FC(F)(F)C(F)(F)C(F)(F)C(F)(F)C(F)(F)C(F)(F)F` [perfluorohexane], the mass density worked out at 1670.07 ± 0.32 kg/m3.

These data come from the NIST ThermoML archive (doi:10.1016/j.fluid.2010.05.018).
